Data taken from patent US6150126A, “Daphnia reproductive bioassay for testing toxicity of aqueous samples and presence of an endocrine disrupter” (Wisconsin Alumni Research Foundation, priority 1998, dated 2000).
Like-named read-outs stand apart in the source and are kept apart here.

Legend:
retinoid X receptors = conditions: cited from earlier work
[1] = system: Daphnia galeata mendotae Wingra CDF-1 clone; conditions: in vivo
[2] = system: Daphnia galeata mendotae (CDF-1 clone); conditions: in vivo
vertebrate systems = conditions: cited from earlier work
Daphnia [3] = conditions: in vivo; cited from earlier work
Daphnia [4] = conditions: in vivo; cited from earlier work; remark: listed apart in the source
Daphnia [5] = conditions: in vivo, cited from earlier work
Daphnia carinata = conditions: in vivo; cited from earlier work
[6] = system: Daphnia galeata-mendotae (clone CDF-1); conditions: in vivo
Daphnia [7] = conditions: in vivo, 48 h
fish, mammals and birds = conditions: cited from earlier work
D. magna [8] = conditions: daphnia, in vivo, cited from earlier work
D. magna [9] = conditions: daphnia, in vivo; cited from earlier work
Daphnia [10] = conditions: in vivo; cited from earlier work; remark: listed apart in the source

## COC(C)(C)CCC[C@H](C)C/C=C/C(C)=C/C(=O)OC(C)C (racemic) [methoprene]
Retinoid X receptors
  Gene transcription in mammals via retinoid X receptors: can stimulate gene transcription in mammals by activating retinoid X receptors

## ClC1=C(Cl)[C@]2(Cl)[C@@H]3[C@@H]4C[C@@H]([C@H]5O[C@@H]45)[C@@H]3[C@@]1(Cl)C2(Cl)Cl [Dieldrin, dieldrin]
[1]
  Effect versus controls (sex ratio, males): no difference
[2]; daphnia
  Concentration of no effect on sex ratio / above which sex ratio is reduced: about 30 ppb
  X intercept of regression line of sex ratio index vs log dieldrin: 31 ppb
[2]
  Adult survival or clutch size, effect: Neither insecticide significantly affected adult survival or clutch size
  Endocrine disruption activity: shows endocrine disruption activity in Daphnia
  Morphological abnormalities: Neither insecticide caused morphological abnormalities
  Regression line, sex ratio index (Y) vs log ppb dieldrin (X): Y=-0.0195X+0.299
Vertebrate systems
  Estrogenicity: weakly estrogenic
Daphnia [3]
  Concentration below which little or no effect on population growth rate: about 220 ppb
Daphnia [4]
  Effect on sex ratio: no effect of dieldrin on sex ratio

## O=S1OCC2C(CO1)C1(Cl)C(Cl)=C(Cl)C2(Cl)C1(Cl)Cl (stereo not drawn) [Endosulfan, endosulfan]
[1]
  Effect versus controls (sex ratio, males): a tendency for a reduction of males
[2]
  Adult survival or clutch size, effect: Neither insecticide significantly affected adult survival or clutch size
  Morphological abnormalities: Neither insecticide caused morphological abnormalities
  Sex ratio, effect: No endosulfan effect was observed
Vertebrate systems
  Estrogenicity: weakly estrogenic
Daphnia [5]; daphnia
  Lowest concentration with reported morphological changes: 0.1 μgL^-1
Daphnia [5]
  Concentration affecting Daphnia population growth: about 120 ppb
  Concentration reducing filtration and assimilation rates: 440-600 ppb
Daphnia carinata
  Concentrations reducing body length and weight, egg mass and brood size: 40-160 ppb

## nonylphenol
[6]
  Live young with deformity: 11%
  Population growth rate r: nonlinear pattern
  Survival: low survival
Daphnia [7]
  Mortality: 100%
fish, mammals and birds
  Estrogenicity: estrogenic to fish, mammals and birds
D. magna [8]; 168 h
  Chronic LC50: 0.12 µg/mL
D. magna [8]; 336 h
  Chronic LC50: 0.12 µg/mL
D. magna [8]; 504 h
  Chronic LC50: 0.1 µg/mL
D. magna [9]
  No-observed effect concentration (NOEC): 24 μgL-L^-1
Daphnia [10]
  Developmental deformity: cause a characteristic deformity
